System: 935938-334-R-J1-PDC spheroids with HUVEC/MSC, viability
Assay: Anticancer human tumor 935938-334-R-J1-PDC patient-derived small intestine adenocarcinoma cell line growth inhibition [PI3K]
Details: for IC50: curve of first compound; for viability, T/C: stronger effect = lower value
In short: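 Stroma-containing spheroids: tumor line, pooled-donor HUVEC, hMSC. Treatments: targeted agents with PI3K inhibitors. Dosing: clinically relevant, half-log spacing, 10 microM ceiling without known Cmax. Read-out: cell viability.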

[1] = second compound 0.00316 µM, first compound 0.0316 µM
[2] = second compound 0.00316 µM, first compound 0.1 µM
[3] = second compound 0.00316 µM, first compound 0.316 µM
[4] = second compound 0.00316 µM, first compound 1 µM
[5] = second compound 0.00316 µM, first compound 3.16 µM
[6] = second compound 0.00316 µM, first compound 10 µM
[7] = second compound 0.01 µM, first compound 0.0316 µM
[8] = second compound 0.01 µM, first compound 0.1 µM
[9] = second compound 0.01 µM, first compound 0.316 µM
[10] = second compound 0.01 µM, first compound 1 µM
[11] = second compound 0.01 µM, first compound 3.16 µM
[12] = second compound 0.01 µM, first compound 10 µM
[13] = second compound 0.0316 µM, first compound 0.0316 µM
[14] = second compound 0.0316 µM, first compound 0.1 µM
[15] = second compound 0.0316 µM, first compound 0.316 µM
[16] = second compound 0.0316 µM, first compound 1 µM
[17] = second compound 0.0316 µM, first compound 3.16 µM
[18] = second compound 0.0316 µM, first compound 10 µM
[19] = second compound 0.1 µM, first compound 0.0316 µM
[20] = second compound 0.1 µM, first compound 0.1 µM
[21] = second compound 0.1 µM, first compound 0.316 µM
[22] = second compound 0.1 µM, first compound 1 µM
[23] = second compound 0.1 µM, first compound 3.16 µM
[24] = second compound 0.1 µM, first compound 10 µM
[25] = second compound 0.316 µM, first compound 0.0316 µM
[26] = second compound 0.316 µM, first compound 0.1 µM
[27] = second compound 0.316 µM, first compound 0.316 µM
[28] = second compound 0.316 µM, first compound 1 µM
[29] = second compound 0.316 µM, first compound 3.16 µM
[30] = second compound 0.316 µM, first compound 10 µM
[31] = second compound 1 µM, first compound 0.0316 µM
[32] = second compound 1 µM, first compound 0.1 µM
[33] = second compound 1 µM, first compound 0.316 µM
[34] = second compound 1 µM, first compound 1 µM
[35] = second compound 1 µM, first compound 3.16 µM
[36] = second compound 1 µM, first compound 10 µM
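Further: compound exposure lasted seven days before viability was read.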
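Wherever viability, T/C is given: percent of vehicle DMSO treated spheroid viability so 100% = untreated.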

In the case of `CCCS(=O)(=O)Nc1ccc(F)c(C(=O)c2c[nH]c3ncc(-c4ccc(Cl)cc4)cc23)c1F` + COc1c(OCCCN2CCOCC2)ccc2c3n(c(=NC(=O)c4cnc(N)nc4)nc12)CCN3, the IC50 (second compound 0.00316 µM) is reported as 7.39 µM, the IC50 (second compound 0.01 µM) is reported as 7.41 µM and the IC50 (second compound 0.0316 µM) is reported as 6.73 µM. For the same compound, the IC50 (second compound 0.1 µM) was 5.38 µM, the IC50 (second compound 0.316 µM) was under 0.0316 µM and the IC50 (second compound 1 µM) was under 0.0316 µM. For the same compound, the viability, T/C [1] was 97.3%, the viability, T/C [2] was 104% and the viability, T/C [3] was 113%. The viability, T/C [4] was 132%, the viability, T/C [5] was 102% and the viability, T/C [6] was 31.2%. For the same compound, the viability, T/C [7] was 123%, the viability, T/C [8] was 107% and the viability, T/C [9] was 96.1%. For the same compound, the viability, T/C [10] was 120%, the viability, T/C [11] was 115% and the viability, T/C [12] was 28.1%. For the same compound, the viability, T/C [13] was 95%, the viability, T/C [14] was 81.4% and the viability, T/C [15] was 85%. For the same compound, the viability, T/C [16] was 108%, the viability, T/C [17] was 87.9% and the viability, T/C [18] was 29.5%. It also gave a viability, T/C [19] of 61.8%, a viability, T/C [20] of 65.5% and a viability, T/C [21] of 65.3%. The viability, T/C [22] was 89.1%, the viability, T/C [23] was 70.6% and the viability, T/C [24] was 26.7%. For the same compound, the viability, T/C [25] was 39%, the viability, T/C [26] was 45.2% and the viability, T/C [27] was 51.6%. The viability, T/C [28] was 49.3%, the viability, T/C [29] was 49.5% and the viability, T/C [30] was 31.9%. It also gave a viability, T/C [31] of 39.2%, a viability, T/C [32] of 40.9% and a viability, T/C [33] of 39.3%. The viability, T/C [34] was 50%, the viability, T/C [35] was 50.3% and the viability, T/C [36] was 23.9%.

With `C[C@@H](NC(=O)c1ncnc(N)c1Cl)c1ncc(C(=O)Nc2cc(C(F)(F)F)c(Cl)cn2)s1` + COc1c(OCCCN2CCOCC2)ccc2c3n(c(=NC(=O)c4cnc(N)nc4)nc12)CCN3 the IC50 (second compound 0.00316 µM) was over 10 µM, the IC50 (second compound 0.01 µM) was over 10 µM and the IC50 (second compound 0.0316 µM) was over 10 µM. For the same compound, the IC50 (second compound 0.1 µM) was 6.99 µM, the IC50 (second compound 0.316 µM) was under 0.0316 µM and the IC50 (second compound 1 µM) was under 0.0316 µM. It also gave a viability, T/C [1] of 124%, a viability, T/C [2] of 105% and a viability, T/C [3] of 116%. For the same compound, the viability, T/C [4] was 108%, the viability, T/C [5] was 123% and the viability, T/C [6] was 82.3%. The viability, T/C [7] was 104%, the viability, T/C [8] was 122% and the viability, T/C [9] was 115%. It also gave a viability, T/C [10] of 117%, a viability, T/C [11] of 101% and a viability, T/C [12] of 90%. The viability, T/C [13] was 81.3%, the viability, T/C [14] was 94.4% and the viability, T/C [15] was 96.2%. The viability, T/C [16] was 85.4%, the viability, T/C [17] was 76.3% and the viability, T/C [18] was 69.9%. For the same compound, the viability, T/C [19] was 67.5%, the viability, T/C [20] was 65.7% and the viability, T/C [21] was 73.2%. The viability, T/C [22] was 71.2%, the viability, T/C [23] was 60.8% and the viability, T/C [24] was 44.5%. The viability, T/C [25] was 46.3%, the viability, T/C [26] was 42.1% and the viability, T/C [27] was 38.9%. The viability, T/C [28] was 41.8%, the viability, T/C [29] was 40.1% and the viability, T/C [30] was 42.9%. The viability, T/C [31] was 36.8%, the viability, T/C [32] was 41.3% and the viability, T/C [33] was 40.8%. For the same compound, the viability, T/C [34] was 37.3%, the viability, T/C [35] was 37.5% and the viability, T/C [36] was 34.7%.

In the case of `Cn1ncnc1[C@H]1c2n[nH]c(=O)c3cc(F)cc(c23)N[C@@H]1c1ccc(F)cc1` + COc1c(OCCCN2CCOCC2)ccc2c3n(c(=NC(=O)c4cnc(N)nc4)nc12)CCN3, the IC50 (second compound 0.00316 µM) is reported as over 0.1 µM, the IC50 (second compound 0.01 µM) is reported as over 0.1 µM and the IC50 (second compound 0.0316 µM) is reported as over 0.1 µM. It also gave an IC50 (second compound 0.1 µM) of 0.00829 µM, an IC50 (second compound 0.316 µM) of under 0.000316 µM and an IC50 (second compound 1 µM) of under 0.000316 µM. It also gave a viability, T/C (second compound 0.00316 µM, first compound 0.000316 µM) of 90.8%, a viability, T/C (second compound 0.00316 µM, first compound 0.001 µM) of 96.6% and a viability, T/C (second compound 0.00316 µM, first compound 0.00316 µM) of 103%. For the same compound, the viability, T/C (second compound 0.00316 µM, first compound 0.01 µM) was 83.3%, the viability, T/C [1] was 96.2% and the viability, T/C [2] was 92.8%. It also gave a viability, T/C (second compound 0.01 µM, first compound 0.000316 µM) of 109%, a viability, T/C (second compound 0.01 µM, first compound 0.001 µM) of 106% and a viability, T/C (second compound 0.01 µM, first compound 0.00316 µM) of 92.3%. The viability, T/C (second compound 0.01 µM, first compound 0.01 µM) was 82.2%, the viability, T/C [7] was 92.4% and the viability, T/C [8] was 77.4%. The viability, T/C (second compound 0.0316 µM, first compound 0.000316 µM) was 77%, the viability, T/C (second compound 0.0316 µM, first compound 0.001 µM) was 65.6% and the viability, T/C (second compound 0.0316 µM, first compound 0.00316 µM) was 90.2%. For the same compound, the viability, T/C (second compound 0.0316 µM, first compound 0.01 µM) was 82.2%, the viability, T/C [13] was 73.8% and the viability, T/C [14] was 76%. It also gave a viability, T/C (second compound 0.1 µM, first compound 0.000316 µM) of 56%, a viability, T/C (second compound 0.1 µM, first compound 0.001 µM) of 52% and a viability, T/C (second compound 0.1 µM, first compound 0.00316 µM) of 57.5%. For the same compound, the viability, T/C (second compound 0.1 µM, first compound 0.01 µM) was 47.2%, the viability, T/C [19] was 43.5% and the viability, T/C [20] was 50.2%. The viability, T/C (second compound 0.316 µM, first compound 0.000316 µM) was 31.2%, the viability, T/C (second compound 0.316 µM, first compound 0.001 µM) was 35.3% and the viability, T/C (second compound 0.316 µM, first compound 0.00316 µM) was 34.5%. For the same compound, the viability, T/C (second compound 0.316 µM, first compound 0.01 µM) was 34.6%, the viability, T/C [25] was 34.2% and the viability, T/C [26] was 35.4%. For the same compound, the viability, T/C (second compound 1 µM, first compound 0.000316 µM) was 33.1%, the viability, T/C (second compound 1 µM, first compound 0.001 µM) was 40.3% and the viability, T/C (second compound 1 µM, first compound 0.00316 µM) was 37.5%. For the same compound, the viability, T/C (second compound 1 µM, first compound 0.01 µM) was 32.7%, the viability, T/C [31] was 36% and the viability, T/C [32] was 35.1%.

Reference: PubChem BioAssay AID1963966 (Molecular Pharmacology Branch, DTP, NCI, 2024)
